For the test, the system named is APAP-induced liver injury in mice. Briefly: Delayed treatment 6 h post-APAP, comparison with NAC. It counts as in vivo, mouse. Conditions: read at 24 h, FIG. 5D. Here is the method:
To compare the 18-mer's effectiveness to N-acetyl cysteine (NAC), 300 mg kg^−1 NAC at pH 7.5 in sterile saline was injected intraperitoneal 30 min post-APAP. In a separate experiment, 300 mg kg^−1 NAC or 0.34 mg/kg 18-mer were administered 6 h post-APAP, then at 18 h post-APAP, 0.17 mg kg^−1 18-mer was administered to the 18-mer treated group. At 24 h post-APAP, mice were euthanized and blood and liver tissue were collected.
Plasma ALT was measured using the ALT Infinity reagent (Thermo Fisher Scientific) following the manufacturer's instructions. Plasma TNF-α was measured using Mouse TNF-α DuoSet Kit (R&D Systems, Minneapolis, Minnesota, United States of America) according to the manufacturer's instructions. Plasma HMGB1 levels were determined using HMGB1 ELISA Kit (Tecan US of Tecan Trading AG, Mannedorf, Switzerland) according to the manufacturer's instructions. Plasma syndecan-1 levels were determined using Mouse Syndecan-1 ELISA (CellSciences) according to manufacturer's instructions. Hepatic GSH levels were determined using Glutathione Assay Kit (Cayman Chemicals, Ann Arbor, Michigan, United States of America) according to the manufacturer's instructions.

Each structure is given as a SMILES string. “Also recorded” adds a separate entry of the source.

`CC(=O)N[C@@H](CS)C(=O)O` [NAC, N-acetyl-cysteine]: the “protective effect (ALT) when administered six hours post-APAP” value is recorded as “loses its protective effect; also recorded: loses effectiveness”.
